This note sets out measurements from US12077503B2, “Substituted cyclic amides and their use as herbicides” (FMC CORPORATION, priority 2015, dated 2024).

Common to all, as to assay type: in vivo
One experiment relates to corn (Zea mays). Nature of the experiment: Test A postemergence. The note with it: Zea mays, post-emergence, 240 h, 125 g ai/ha, postemergence, visual injury rating after approximately 10 d; read-out: Corn plant response rating (0 to 100 scale, 0 no effect, 100 complete control). The essentials: (§1)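 Preemergence soil spray on seeded pots or post-emergence spray on 1–2 leaf plants, in loam–sand blend. Greenhouse ~10 d. Visual rating 0–100 against untreated plants.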

Experiment [1] deals with wheat (Triticum aestivum). Briefly: Test A postemergence. The note with it: Triticum aestivum, post-emergence, 240 h, 125 g ai/ha, postemergence, visual injury rating after approximately 10 d; read-out: Wheat plant response rating (0 to 100 scale, 0 no effect, 100 complete control). The essentials: as §1
Experiment [2] concerns giant foxtail (Setaria faberii). Nature of the experiment: Test A postemergence. The note with it: Setaria faberi, post-emergence, 240 h, 125 g ai/ha, postemergence, visual injury rating after approximately 10 d; read-out: Foxtail, Giant plant response rating (0 to 100 scale, 0 no effect, 100 complete control). The essentials:
as §1

In experiment [3] the test system is ragweed (common ragweed, Ambrosia elatior). Briefly: Test A postemergence. The note with it: Ambrosia artemisiifolia, post-emergence, 240 h, 125 g ai/ha, postemergence, visual injury rating after approximately 10 d; read-out: Ragweed plant response rating (0 to 100 scale, 0 no effect, 100 complete control). The essentials: as §1
For experiment [4], the system named is Galium (catchweed bedstraw, Galium aparine). Briefly: Test A postemergence. The note with it: Galium, post-emergence, 240 h, 125 g ai/ha, postemergence, visual injury rating after approximately 10 d; read-out: Galium plant response rating (0 to 100 scale, 0 no effect, 100 complete control). The essentials:
as §1

Experiment [5] relates to ryegrass, Italian (Italian ryegrass, Lolium multiflorum). Nature of the experiment: Test A postemergence. The note with it: Lolium multiflorum, post-emergence, 240 h, 125 g ai/ha, postemergence, visual injury rating after approximately 10 d; read-out: Ryegrass, Italian plant response rating (0 to 100 scale, 0 no effect, 100 complete control). The essentials:
as §1

For experiment [6], the system named is barnyardgrass (Echinochloa crus-galli). Briefly: Test A postemergence. The note with it: Echinochloa crus-galli, post-emergence, 240 h, 125 g ai/ha, postemergence, visual injury rating after approximately 10 d; read-out: Barnyardgrass plant response rating (0 to 100 scale, 0 no effect, 100 complete control). The essentials:
as §1

Experiment [7] deals with blackgrass (Alopecurus myosuroides). Nature of the experiment: Test A postemergence. The note with it: Alopecurus myosuroides, post-emergence, 240 h, 125 g ai/ha, postemergence, visual injury rating after approximately 10 d; read-out: Blackgrass plant response rating (0 to 100 scale, 0 no effect, 100 complete control). The essentials:
as §1

Experiment [8] has as its system pigweed (Amaranthus retroflexus). Nature of the experiment: Test A postemergence. The note with it: Amaranthus retroflexus, post-emergence, 240 h, 125 g ai/ha, postemergence, visual injury rating after approximately 10 d; read-out: Pigweed plant response rating (0 to 100 scale, 0 no effect, 100 complete control). The essentials:
as §1

Experiment [9] relates to giant foxtail (Setaria faberii). Briefly: Test A preemergence. The note with it: Setaria faberi, pre-emergence, 240 h. The essentials: as §1
The subject of experiment [10] is ragweed (common ragweed, Ambrosia elatior). Nature of the experiment: Test A preemergence. The note with it: Ambrosia artemisiifolia, pre-emergence, 240 h. The essentials:
as §1

The subject of another experiment is Kochia (Kochia scoparia). Briefly: Test A preemergence. The note with it: Bassia scoparia, pre-emergence, 240 h. The essentials:
as §1

The subject of experiment [11] is ryegrass, Italian (Italian ryegrass, Lolium multiflorum). Nature of the experiment: Test A preemergence. The note with it: Lolium multiflorum, pre-emergence, 240 h. The essentials: as §1
The subject of experiment [12] is barnyardgrass (Echinochloa crus-galli). Briefly: Test A preemergence. The note with it: Echinochloa crus-galli, pre-emergence, 240 h. The essentials:
as §1

Experiment [13] deals with pigweed (Amaranthus retroflexus). Nature of the experiment: Test A preemergence. The note with it: Amaranthus retroflexus, pre-emergence, 240 h.

Regarding `CN1C[C@H](c2cc(F)cc(F)c2)[C@@H](C(=O)Nc2ccccc2[S@+](C)[O-])C1=O` [Compound 871], the plant injury at 125 g/ha (with corn (Zea mays); in [1]) was 20% throughout. For the same compound, the pest or weed control at 125 g/ha came to 40% in experiment [2]; 0% in experiment [3]; 50% in experiment [4]; 20% in experiment [5]; 50% in experiment [6]; 0% in [7]. Also, the pest or weed control at 125 g/ha was 0% in experiment [8]; 80% in [9] (125 g ai/ha, preemergence, 0 to 100 scale where 0 is no effect and 100 is complete control, read-out: Foxtail, Giant plant response rating); 0% in [10] (125 g ai/ha, preemergence, 0 to 100 scale where 0 is no effect and 100 is complete control, read-out: Ragweed plant response rating); 80% with Kochia (Kochia scoparia) (125 g ai/ha, preemergence, 0 to 100 scale where 0 is no effect and 100 is complete control, read-out: Kochia plant response rating); 0% in [11] (125 g ai/ha, preemergence, 0 to 100 scale where 0 is no effect and 100 is complete control, read-out: Ryegrass, Italian plant response rating); 20% in experiment [12] (125 g ai/ha, preemergence, 0 to 100 scale where 0 is no effect and 100 is complete control, read-out: Barnyardgrass plant response rating). In experiment [13] (125 g ai/ha, preemergence, 0 to 100 scale where 0 is no effect and 100 is complete control, read-out: Pigweed plant response rating), the pest or weed control at 125 g/ha came to 0%. In addition, the pest or weed control at 500 g/ha was determined as 80% in [9] (500 g ai/ha, Preemergence, visual injury vs untreated controls after approximately 10 d, read-out: Foxtail, Giant plant response rating (0 to 100 scale where 0 is no effect and 100 is complete control)); 20% in experiment [10] (500 g ai/ha, Preemergence, visual injury vs untreated controls after approximately 10 d, read-out: Ragweed plant response rating (0 to 100 scale where 0 is no effect and 100 is complete control)); 80% in the experiment with Kochia (Kochia scoparia) (500 g ai/ha, Preemergence, visual injury vs untreated controls after approximately 10 d, read-out: Kochia plant response rating (0 to 100 scale where 0 is no effect and 100 is complete control)); 30% in [11] (500 g ai/ha, Preemergence, visual injury vs untreated controls after approximately 10 d, read-out: Ryegrass, Italian plant response rating (0 to 100 scale where 0 is no effect and 100 is complete control)); 90% in experiment [12] (500 g ai/ha, Preemergence, visual injury vs untreated controls after approximately 10 d, read-out: Barnyardgrass plant response rating (0 to 100 scale where 0 is no effect and 100 is complete control)); 30% in [13] (500 g ai/ha, Preemergence, visual injury vs untreated controls after approximately 10 d, read-out: Pigweed plant response rating (0 to 100 scale where 0 is no effect and 100 is complete control)).
